Consider 78 compounds from article PMC12040169 (PLOS Biology, 2025).

The series is described as follows: in vitro. The following applies: human, hela cells, % viability.

The term viability denotes a read-out of living cells in per cent, often relative to untreated cells. Turning to `CN1CCC[C@H]1C(=O)Nc1nc2c(s1)C(=O)CC(C)(C)C2` [CBK144101], the viability at 28.5 h, 10 µM was determined as 98.8%.
On the same count and under the same terms, the result for `Cc1ccc(SCCNS(C)(=O)=O)cc1` [CBK026280] reads 90.8%; that for `CS(=O)(=O)Nc1nccnc1N1CCN(c2ccccc2)CC1` [CBK048688], 91.8%.
As to `COc1ccc(S(=O)(=O)N2CC[C@H]3NC(=O)N(c4ccc(C(C)C)cc4)C(=O)[C@H]32)cc1` [CBK289290], the viability at 28.5 h, 10 µM was determined as 107%.
In the case of `CC12CCC(=O)N1C(C(=O)NCCNc1ccc(S(C)(=O)=O)cc1[N+](=O)[O-])CS2` (stereo not drawn) [CBK296661], the viability at 28.5 h, 10 µM is 87.6%.
In the case of `CN(C)c1nc(N(C)CC2(CO)CCOCC2)ncc1F` [CBK307091], the viability at 28.5 h, 10 µM is 110%.
For `O=S(=O)(O)c1cc(O)c2c(/N=N/c3c(S(=O)(=O)O)cc4cc(S(=O)(=O)O)cc(O)c4c3O)cc(S(=O)(=O)O)cc2c1` [CBK260934], the viability at 28.5 h, 10 µM came out at 102%.
With `Cc1c(Cc2ccccc2)c(N2CCN(Cc3ccccc3)CC2)n2c(nc3ccccc32)c1C#N` [CBK263150], the viability at 28.5 h, 10 µM worked out at 94.9%.
Still for that read-out and setting: next, `Cc1coc(C)c1C(=O)CC1(O)C(=O)N(CCCC#N)c2ccccc21` (stereo not drawn) [CBK307383]: 86%.
On to `CC(=O)N1CCC[C@H]2NC(=O)CNC(=O)C3(C/C=C/C[C@H]21)CCN(C(=O)CCC(=O)O)CC3` [CBK292174], for which the viability at 28.5 h, 10 µM stood at 85%.
Same read-out and setting: next, `COCCNc1nc(-c2ccc([N+](=O)[O-])cc2)nc2ccccc12` [CBK264819]: 109%.
Take `CCCc1c(C(=O)NCC(C)(C)CN(C)C)cnn1-c1cc(Cl)cc(Cl)c1` [CBK107381]: the viability at 28.5 h, 10 µM stood at 94.3%.
`Cc1csc(NC(=O)CN2CC=C(c3ccc(C)o3)CC2)n1` [CBK283606]: the viability at 28.5 h, 10 µM stood at 96.5%.
Same read-out and setting: the result for `O=C(NCCOc1ccc(F)cc1)c1cccc(-n2cccn2)c1` [CBK281596] reads 101%; that for `NC1=C(c2nc3ccccc3s2)C(=O)CN1CCN1CCOCC1` [CBK265946], 93.1%.
Still for that read-out and setting: next, `Cc1ccccc1CNCCNCCO` [CBK278293C]: 98%; `COC(=O)c1c(NC(=S)Nc2cnccn2)sc2c1CCC(C)C2` (stereo not drawn) [CBK266893]: 94.2%.
On the same count and under the same terms, next, `OCCN1CC2(CCN(Cc3ncc[nH]3)CC2)c2ccccc21` [CBK126763]: 102%.
As for `Cc1ccc(OCc2occc2C(=O)N2CCCn3cncc3C2)cc1` [CBK306618], the viability at 28.5 h, 10 µM was found to be 92.7%.
Regarding `COCCNc1nc(-c2ccccc2CO)ccc1C(=O)NCCNC(C)=O` [CBK076548], the viability at 28.5 h, 10 µM amounted to 101%.
With `Cc1cc(Oc2ccccc2)nc(Oc2ccc(=O)n(-c3ccccc3)n2)n1` [CBK269843], the viability at 28.5 h, 10 µM came out at 106%.
With `Nc1ncc(-c2cccc(OC(F)(F)F)c2)nc1-c1ccc(F)c(Cl)c1` [CBK064021], the viability at 28.5 h, 10 µM was found to be 113%.
As to `Cc1cccc(C)c1NC(=O)Cn1c(SCC(N)=O)nc2ccccc21` [CBK266684], the viability at 28.5 h, 10 µM was determined as 106%.
With `CC(C)(Oc1ccc(Cl)cc1)C(=O)Nc1nnc[nH]1` [CBK288220], the viability at 28.5 h, 10 µM was 102%.
For the compound `Cn1nnnc1Sc1cc(=O)n(C)c(=O)n1C` [CBK011072], the viability at 28.5 h, 10 µM was 114%.
Consider `CC(C)C(=O)N1CCN(C(=O)Cn2c(-c3ccc(Cl)cc3)n[nH]c2=S)CC1` [CBK297910], for which the viability at 28.5 h, 10 µM was found to be 100%.
On to `O=C(Nc1cccc(N2CCCC2)c1)c1cc(C2CC2)on1` [CBK283139], for which the viability at 28.5 h, 10 µM is 87.7%.
On the same count and under the same terms, the result for `CCCCSc1sc(C(=O)O)c(-c2ccc(Cl)cc2)c1C#N` [CBK122551] reads 94.1%; that for `O=C(NCc1ccc([N+](=O)[O-])cc1)c1cccnc1NCc1ccc2c(c1)OCO2` [CBK153436], 98.6%.
In the case of `Cc1cc(C)nc(N2CCC(C(=O)NCc3ccc(Cl)cc3)CC2)n1` [CBK136319], the viability at 28.5 h, 10 µM is 94.8%.
Consider `CN1C(=O)c2ccccc2C(=O)[C@@]2(C)CN(C3CCCC3)C[C@@H]12` [CBK283476], for which the viability at 28.5 h, 10 µM was 83.3%.
Turning to `CCCn1c(Nc2nc3ccccc3n2C)nc2ccccc21` [CBK268310], the viability at 28.5 h, 10 µM amounted to 85.7%.
As to `Cn1ccnc1C1(O)CCN(C(=O)c2ccc(F)cc2F)CC1` [CBK283552], the viability at 28.5 h, 10 µM turned out to be 103%.
Regarding `S=c1[nH]nc(CN2CCSCC2)n1-c1ccc(Cl)cc1` [CBK013868], the viability at 28.5 h, 10 µM amounted to 105%.
With `CCn1c(=O)n(CC(=O)N2C(C)CCCC2C)c2cccnc21` (stereo not drawn) [CBK283825], the viability at 28.5 h, 10 µM turned out to be 102%.
`O=C(NC(=S)Nc1ccccc1)c1cncc(Br)c1` [CBK092040]: the viability at 28.5 h, 10 µM turned out to be 91.2%.
In the case of `NC(=O)c1cccc(-c2nc(-c3cccs3)cnc2N)c1` [CBK064117], the viability at 28.5 h, 10 µM is 89.7%.
In the case of `CC(C)(C)c1ccc(OCc2nnc(S)n2N)cc1` [CBK268421], the viability at 28.5 h, 10 µM came out at 89.1%.
On to `CCC(=O)N(C[C@H]1CCC[C@@H]1N(C)C)c1ccc(Cl)c(Cl)c1` [CBK003408], for which the viability at 28.5 h, 10 µM (bulk resorufin, single well) was found to be 96.5%.
Consider `O=c1c2sccc2nc2n1CCN(Cc1ccc(F)c(F)c1)CC2` [CBK282295], for which the viability at 28.5 h, 10 µM worked out at 103%.
With `CCc1ccc(/C=C2/SC(=S)N(CCC(=O)O)C2=O)cc1` [CBK263390], the viability at 28.5 h, 10 µM came out at 120%.
On the same count and under the same terms, the result for `COc1ccc(NC(=O)CSCc2cc(O)[nH]n2)cc1` [CBK268417] reads 99.3%; that for `c1ccc2c(c1)OCC(c1nn3c(-c4ccncc4)nnc3s1)O2` (stereo not drawn) [CBK288560], 107%; that for `CCCN1CC(NS(=O)(=O)c2cc(OC)c(C)cc2OC)CC1=O` (stereo not drawn) [CBK307036], 75.4%.
Turning to `CC(=O)NCCn1cc2c(n1)[C@H]1CN(C(=O)C(C)(C)C)C[C@H]1CC2` [CBK282168], the viability at 28.5 h, 10 µM was 102%.
Consider `CCn1c(SCC(=O)Nc2c(Cl)cc(Cl)cc2Cl)nnc1-c1ccccc1F` [CBK268609], for which the viability at 28.5 h, 10 µM is 102%.
Still for that read-out and setting: the result for `Oc1ccc(-n2ncc(-c3cccc(C(F)(F)F)c3)n2)cc1` [CBK112677] reads 99.9%; that for `COC(=O)[C@H]1CN(C(=O)C2CC(=O)N(C)C2)C[C@@H]1c1ccccc1F` (stereo partly drawn) [CBK285470], 94.7%.
With `C[C@H]1CN2C[C@H](O)CC2CN1Cc1cccn1Cc1ccccc1F` (stereo partly drawn) [CBK285165], the viability at 28.5 h, 10 µM amounted to 88.7%.
Turning to `CCCC/C=C/c1nccnc1NCc1ccco1` [CBK037116], the viability at 28.5 h, 10 µM worked out at 105%.
On the same count and under the same terms, next, `CSc1ccccc1-n1nnnc1SCc1ccccc1` [CBK099033]: 83%; `O=C(Cn1cc(C(=O)Nc2cc(F)ccc2N2CCCC2)ccc1=O)NC1CCCCC1` [CBK285981]: 102%.
For `COc1ncc(-c2cccc(N(C)CCN(C)C)n2)c(OC)n1` [CBK037599], the viability at 28.5 h, 10 µM came to 99.1%.
As to `CC(=O)Nc1ccc(NC(=O)CC2(CC(=O)O)CCCC2)cc1` [CBK296931], the viability at 28.5 h, 10 µM is 97.3%.
Same read-out and setting: the result for `CN1CCN(C(=O)Cc2csc(-c3ccc(Cl)cc3)n2)CC1` [CBK107301] reads 104%; that for `CNC(=O)c1cc(-c2cccc(C)c2)oc1C` [CBK047432], 80.3%; that for `O=C(O)c1ccc(S(=O)(=O)c2ccc(Oc3ccc4c(c3)C(=O)N(c3cccc(C(=O)O)c3)C4=O)cc2)cc1` [CBK263608], 96.7%.
As for `COc1cc(OC)nc(CN2C(=O)C3(CC(=O)N(CCCN4C(=O)c5ccccc5C4=O)C3=O)c3cc(C)ccc32)n1` (stereo not drawn) [CBK075992], the viability at 28.5 h, 10 µM is 91.5%.
Regarding `O=C(NCCN1CCC(O)(c2ccc(F)cc2)CC1)c1ccco1` [CBK283166], the viability at 28.5 h, 10 µM turned out to be 99.3%.
In the case of `CCc1nc2ccc(C(=O)N3CCCCC3)cn2c1N(CC)Cc1ccc2c(c1)OCCO2` [CBK146903], the viability at 28.5 h, 10 µM was 100%.
As to `Cc1cc(C)n(S(=O)(=O)c2cc(C(=O)O)c(Cl)cc2Cl)n1` [CBK113170], the viability at 28.5 h, 10 µM stood at 86.3%.
`COc1ccccc1-n1nc(CC(C)C)nc1C(C)NS(C)(=O)=O` (stereo not drawn) [CBK306660]: the viability at 28.5 h, 10 µM is 95.6%.
Consider `Cn1cc(C(=O)N2CCOCC2c2nc(-c3cccs3)no2)cn1` (stereo not drawn) [CBK305422], for which the viability at 28.5 h, 10 µM stood at 113%.
With `Cc1cc(C)cc(-c2nnc(SCCC(=O)NC(N)=O)o2)c1` [CBK295164], the viability at 28.5 h, 10 µM stood at 107%.
For `COc1ccc(CN2CCCC(c3nc(C)n4ccccc34)C2)cc1` (stereo not drawn) [CBK282984], the viability at 28.5 h, 10 µM came to 94.6%.
`NC(=O)CSc1nnc(NC(=O)c2ccccc2Cl)s1` [CBK287629]: the viability at 28.5 h, 10 µM is 89.9%.
Turning to `COc1ccc(C[C@@H]2NC(=O)[C@H]3CN(C(=O)Nc4cccc(OC)c4)CCN3C2=O)cc1` [CBK289617], the viability at 28.5 h, 10 µM is 98.9%.
Consider `Cc1nn(CC(=O)NCC2CC2)c(=O)c2cc3sccc3n12` [CBK284025], for which the viability at 28.5 h, 10 µM was determined as 94.5%.
As to `CCOc1cc(/C=N/O)ccc1OC(=O)c1cccc([N+](=O)[O-])c1` [CBK090036], the viability at 28.5 h, 10 µM is 107%.
For `O=C(c1cncnc1)N1CCC2(CCCNC2)C1` (stereo not drawn) [CBK153237C], the viability at 28.5 h, 10 µM worked out at 89.7%.
Turning to `Cc1cccc(-c2n[nH]c(=S)n2CC(=O)NCCCS(=O)(=O)Cc2ccccc2)c1` [CBK297942], the viability at 28.5 h, 10 µM is 103%.
For `CSCCN1CCC(Oc2nccnc2OCCN2C(=O)CCC2=O)CC1` [CBK084351], the viability at 28.5 h, 10 µM was 100%.
With `O=C(O)CCCCCN1C(=O)/C(=C/c2ccc(O)cc2)SC1=S` [CBK262835], the viability at 28.5 h, 10 µM amounted to 87.6%.
As to `Cn1ccc(C2CCCCCN2S(=O)(=O)c2ccc3[nH]c(=O)[nH]c(=O)c3c2)n1` (stereo not drawn) [CBK286407], the viability at 28.5 h, 10 µM amounted to 71.1%.
As for `CC(=O)N1CC(C(=O)N2CC3(CCCC3)c3c(F)cccc32)C1` [CBK306292], the viability at 28.5 h, 10 µM was 97.6%.
On the same count and under the same terms, the result for `CN(C)[C@H]1CCCC[C@@H]1OC(=O)c1ccc(C(F)(F)F)cc1` [CBK010550F] reads 90.1%; that for `CC(NC(=O)c1cccc2ccccc12)c1ccc2ccccc2c1` (stereo not drawn) [CBK267646], 90.1%.
On to `Cc1ccc(S(=O)(=O)N/N=C(/c2ccccc2)c2ccc(OCC(C)C)cc2)cc1` [CBK261056], for which the viability at 28.5 h, 10 µM was 87.8%.
